The test system of one series is Streptococcus. Nature of the series: GAS UMAA2166 growth inhibition – luminescence, BacTiterGlo, counter-screen for streptokinase expression inhibitor project, dose response (AID 1915).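 Note: potency for reduction of bacterial viability or growth.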 Format: functional, organism-based.
The subject of series [1] is Streptococcus sp. 'group A'. Nature of the series: Streptococcus pyogenes SK(-)GAS viability under kanamycin – luminescence, BacTiterGlo, confirmation, counter-screen for streptokinase expression inhibitor project, dose response (AID 1900). In kind it is functional, organism-based.
The target of a further series is T1, Streptokinase A (Streptococcus pyogenes serotype M1, UniProt P10520).
T1 sequence (P10520 whole entry): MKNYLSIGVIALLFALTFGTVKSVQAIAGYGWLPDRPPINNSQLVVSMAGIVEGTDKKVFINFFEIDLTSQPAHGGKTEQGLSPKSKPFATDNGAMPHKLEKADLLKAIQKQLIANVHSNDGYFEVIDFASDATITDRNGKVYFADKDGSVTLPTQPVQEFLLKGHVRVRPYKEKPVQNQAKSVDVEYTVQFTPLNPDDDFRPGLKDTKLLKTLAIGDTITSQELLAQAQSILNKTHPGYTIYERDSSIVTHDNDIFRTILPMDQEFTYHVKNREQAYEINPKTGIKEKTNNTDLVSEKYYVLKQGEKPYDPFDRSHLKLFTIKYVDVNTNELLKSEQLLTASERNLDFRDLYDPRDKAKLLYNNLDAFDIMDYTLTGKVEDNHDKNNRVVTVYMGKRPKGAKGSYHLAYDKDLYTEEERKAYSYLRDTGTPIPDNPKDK
As to the kind of experiment: viability-normalized secreted streptokinase activity reduction – plasminogen activation absorbance, OD405, dose response (AID 1914).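 Note: secreted streptokinase activity via plasminogen activation per viability signal from cell pellet.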 Format: functional, Streptococcus pyogenes M1 GAS.

The nature of series [2]: viability of uninfected HEp-2 cells – cell-based, HTS, cytotoxicity control for RSV inhibitor project, dose response (AID 2410). Format: functional. Particulars: human respiratory syncytial virus.
The next series deals with Vero. Nature of the series: cells. In kind it is functional. To be noted: Chlorocebus sabaeus.
For a further series, the target named is T2, Cytochrome P450 1A2 (Homo sapiens, UniProt P05177).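 Note: PubChem cytochrome P450 panel assay, CYP1A2 panel member.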
T2 sequence (P05177 whole entry): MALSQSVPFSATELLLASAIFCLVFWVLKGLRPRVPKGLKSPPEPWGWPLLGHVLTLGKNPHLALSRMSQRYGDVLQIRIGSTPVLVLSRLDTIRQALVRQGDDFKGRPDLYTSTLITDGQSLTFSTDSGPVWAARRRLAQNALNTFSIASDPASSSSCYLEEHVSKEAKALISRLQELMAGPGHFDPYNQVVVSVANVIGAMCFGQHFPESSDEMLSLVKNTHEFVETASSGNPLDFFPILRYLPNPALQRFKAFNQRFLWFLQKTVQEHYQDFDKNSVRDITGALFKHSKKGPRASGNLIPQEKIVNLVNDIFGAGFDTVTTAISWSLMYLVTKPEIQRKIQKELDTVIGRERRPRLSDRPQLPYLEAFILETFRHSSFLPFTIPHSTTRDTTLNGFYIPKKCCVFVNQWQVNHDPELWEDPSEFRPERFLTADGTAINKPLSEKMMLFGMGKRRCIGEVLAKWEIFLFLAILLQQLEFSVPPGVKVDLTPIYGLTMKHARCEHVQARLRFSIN

The target of series [3] is Eukaryotic translation initiation factor 4E (Mus musculus, UniProt P63073). As to the kind of experiment: blockers of eIF4G binding by eIF4E – biochemical, TR-FRET, dose response (AID 855).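 Note: potency for disrupting eIF4E binding to eIF4GI seen as loss of FRET.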 Format: functional.
Eukaryotic translation initiation factor 4E, sequence (P63073 whole entry): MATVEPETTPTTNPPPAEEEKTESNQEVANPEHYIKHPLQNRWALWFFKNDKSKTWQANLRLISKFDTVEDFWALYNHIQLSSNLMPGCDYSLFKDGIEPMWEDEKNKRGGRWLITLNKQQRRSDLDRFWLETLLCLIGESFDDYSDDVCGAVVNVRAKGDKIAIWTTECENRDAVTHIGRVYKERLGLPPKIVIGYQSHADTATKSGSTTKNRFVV
The target in another series is Cytochrome P450 2C9 (Homo sapiens, UniProt P11712).
Cytochrome P450 2C9, sequence (P11712 whole entry, the tested form may be a part): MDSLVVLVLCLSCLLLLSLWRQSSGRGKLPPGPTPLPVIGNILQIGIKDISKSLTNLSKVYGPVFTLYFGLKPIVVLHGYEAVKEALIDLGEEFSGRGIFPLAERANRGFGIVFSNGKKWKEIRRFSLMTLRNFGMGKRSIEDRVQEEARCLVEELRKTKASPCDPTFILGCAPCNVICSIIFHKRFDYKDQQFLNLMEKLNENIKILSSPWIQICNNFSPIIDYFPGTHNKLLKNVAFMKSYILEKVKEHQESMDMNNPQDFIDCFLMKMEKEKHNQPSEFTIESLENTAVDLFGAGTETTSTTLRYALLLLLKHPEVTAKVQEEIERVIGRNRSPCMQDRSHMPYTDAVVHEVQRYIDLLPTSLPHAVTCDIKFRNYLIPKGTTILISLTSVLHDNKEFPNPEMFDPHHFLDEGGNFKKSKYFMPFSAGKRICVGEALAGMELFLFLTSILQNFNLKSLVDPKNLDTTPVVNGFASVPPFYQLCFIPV
The target of series [4] is T3, Polyadenylate-binding protein 1 (Homo sapiens, UniProt P11940). As to the kind of experiment: MLLE domain peptide-binding blockers, IC50 – biochemical, fluorescence polarization, FITC-PAM2 peptide, dose response (AID 602259). Format: functional. Particulars: read-out: IC50_Mean.
T3 sequence (P11940 whole entry, the tested form may be a part): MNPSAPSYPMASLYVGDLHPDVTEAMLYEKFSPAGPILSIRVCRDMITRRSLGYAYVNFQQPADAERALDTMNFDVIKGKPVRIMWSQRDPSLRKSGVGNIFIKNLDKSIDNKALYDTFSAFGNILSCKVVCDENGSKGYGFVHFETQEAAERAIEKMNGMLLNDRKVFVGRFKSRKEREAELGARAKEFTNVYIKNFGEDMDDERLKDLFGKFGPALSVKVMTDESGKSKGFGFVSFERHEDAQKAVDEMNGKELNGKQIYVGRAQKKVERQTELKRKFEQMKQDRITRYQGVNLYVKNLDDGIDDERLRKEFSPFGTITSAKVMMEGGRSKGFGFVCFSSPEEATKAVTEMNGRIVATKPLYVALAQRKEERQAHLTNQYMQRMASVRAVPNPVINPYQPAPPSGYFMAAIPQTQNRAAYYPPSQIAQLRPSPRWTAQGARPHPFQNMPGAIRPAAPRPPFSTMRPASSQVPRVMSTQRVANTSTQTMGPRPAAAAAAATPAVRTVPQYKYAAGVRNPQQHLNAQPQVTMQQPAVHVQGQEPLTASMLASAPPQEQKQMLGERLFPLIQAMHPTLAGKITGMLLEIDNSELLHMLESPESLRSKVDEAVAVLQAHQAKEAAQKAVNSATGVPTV
For series [5], the target named is T3, Polyadenylate-binding protein 1. As to the kind of experiment: MLLE binding blockers, Cy5 peptide tracer – biochemical, fluorescence polarization, Cy5-PAM2 peptide, secondary, miRNA deadenylation inhibitor project, dose response (AID 602260). Particulars: read-out: IC50_Mean. Format: functional.
Series [6] deals with T4, Sentrin-specific protease 6 (Homo sapiens, UniProt Q9GZR1).
T4 sequence (Q9GZR1 whole entry): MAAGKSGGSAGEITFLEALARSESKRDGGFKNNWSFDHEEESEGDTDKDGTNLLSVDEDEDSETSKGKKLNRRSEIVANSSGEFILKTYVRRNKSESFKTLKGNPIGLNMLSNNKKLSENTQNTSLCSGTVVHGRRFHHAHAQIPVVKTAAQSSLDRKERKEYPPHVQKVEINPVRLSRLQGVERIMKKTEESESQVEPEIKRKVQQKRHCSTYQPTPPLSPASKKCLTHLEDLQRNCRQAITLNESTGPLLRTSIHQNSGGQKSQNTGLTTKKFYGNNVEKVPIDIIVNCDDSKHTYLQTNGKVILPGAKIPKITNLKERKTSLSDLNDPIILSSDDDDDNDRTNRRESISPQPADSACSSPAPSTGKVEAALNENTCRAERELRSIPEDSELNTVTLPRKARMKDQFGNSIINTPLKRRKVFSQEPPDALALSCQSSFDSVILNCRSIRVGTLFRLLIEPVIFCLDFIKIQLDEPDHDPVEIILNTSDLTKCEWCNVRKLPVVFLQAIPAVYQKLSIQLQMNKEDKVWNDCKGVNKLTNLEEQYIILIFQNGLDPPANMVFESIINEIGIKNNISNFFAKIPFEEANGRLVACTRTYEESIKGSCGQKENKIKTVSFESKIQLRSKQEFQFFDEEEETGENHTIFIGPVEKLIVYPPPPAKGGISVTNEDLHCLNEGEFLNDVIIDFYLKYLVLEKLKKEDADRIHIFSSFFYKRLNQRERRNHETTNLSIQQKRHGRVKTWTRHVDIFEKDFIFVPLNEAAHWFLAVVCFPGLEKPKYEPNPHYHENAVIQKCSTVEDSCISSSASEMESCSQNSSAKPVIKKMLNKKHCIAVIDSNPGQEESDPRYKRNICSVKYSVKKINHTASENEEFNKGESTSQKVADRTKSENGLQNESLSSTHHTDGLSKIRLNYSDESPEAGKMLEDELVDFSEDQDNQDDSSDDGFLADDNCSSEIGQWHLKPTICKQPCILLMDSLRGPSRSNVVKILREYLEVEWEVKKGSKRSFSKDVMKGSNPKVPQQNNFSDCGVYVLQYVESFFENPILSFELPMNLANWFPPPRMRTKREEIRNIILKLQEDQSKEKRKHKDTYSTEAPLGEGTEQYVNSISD
In kind it is functional.

In series [7] the target is T5, Sentrin-specific protease 7 (Homo sapiens, UniProt Q9BQF6).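 Note: Luminescence-based dose-response confirmation of ultra-high-throughput screening hits, measuring inhibition of SENP7.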
T5 sequence (Q9BQF6 whole entry): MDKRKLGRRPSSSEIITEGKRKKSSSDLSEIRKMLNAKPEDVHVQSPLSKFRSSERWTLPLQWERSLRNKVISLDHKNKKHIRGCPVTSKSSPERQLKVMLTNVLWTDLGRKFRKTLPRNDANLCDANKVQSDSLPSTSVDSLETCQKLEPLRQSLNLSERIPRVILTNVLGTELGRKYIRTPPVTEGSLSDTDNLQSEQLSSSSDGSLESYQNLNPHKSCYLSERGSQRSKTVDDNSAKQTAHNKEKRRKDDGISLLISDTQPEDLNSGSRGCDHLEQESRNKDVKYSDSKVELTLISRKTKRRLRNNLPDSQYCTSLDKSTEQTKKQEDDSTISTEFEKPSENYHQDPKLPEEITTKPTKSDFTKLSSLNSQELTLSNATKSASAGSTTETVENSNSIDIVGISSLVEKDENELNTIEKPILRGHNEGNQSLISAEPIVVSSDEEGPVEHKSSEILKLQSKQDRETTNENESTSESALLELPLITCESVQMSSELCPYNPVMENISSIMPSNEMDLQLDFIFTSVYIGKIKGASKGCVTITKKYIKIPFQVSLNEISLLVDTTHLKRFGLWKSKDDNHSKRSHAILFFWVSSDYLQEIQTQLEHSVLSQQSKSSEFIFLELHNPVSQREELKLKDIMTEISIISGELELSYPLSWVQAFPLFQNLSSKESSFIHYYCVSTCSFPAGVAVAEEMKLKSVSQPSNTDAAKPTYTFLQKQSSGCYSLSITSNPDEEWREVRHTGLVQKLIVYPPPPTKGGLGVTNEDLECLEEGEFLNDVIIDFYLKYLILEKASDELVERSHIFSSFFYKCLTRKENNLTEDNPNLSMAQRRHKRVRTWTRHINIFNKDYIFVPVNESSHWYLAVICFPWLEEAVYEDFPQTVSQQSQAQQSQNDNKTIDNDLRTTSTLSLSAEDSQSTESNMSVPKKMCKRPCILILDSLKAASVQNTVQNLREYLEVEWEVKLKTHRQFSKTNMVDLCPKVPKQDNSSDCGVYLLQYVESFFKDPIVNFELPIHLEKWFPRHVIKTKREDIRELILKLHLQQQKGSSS
Format: functional.

For series [8], the target named is T6, Sentrin-specific protease 8 (Homo sapiens, UniProt Q96LD8).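 Note: luminescence read-out of SENP8 inhibition, dose-response confirmation following an ultra-high-throughput screen.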
T6 sequence (Q96LD8 whole entry): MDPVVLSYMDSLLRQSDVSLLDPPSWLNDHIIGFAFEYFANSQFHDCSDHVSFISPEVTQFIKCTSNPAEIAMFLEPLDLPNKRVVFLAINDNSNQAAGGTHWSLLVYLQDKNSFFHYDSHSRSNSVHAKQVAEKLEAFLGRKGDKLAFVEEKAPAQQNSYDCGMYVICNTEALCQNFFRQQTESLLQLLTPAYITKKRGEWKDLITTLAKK
Format: functional.

The next series addresses T7, Caspase-3 (Homo sapiens, UniProt P42574).
T7 sequence (P42574 whole entry): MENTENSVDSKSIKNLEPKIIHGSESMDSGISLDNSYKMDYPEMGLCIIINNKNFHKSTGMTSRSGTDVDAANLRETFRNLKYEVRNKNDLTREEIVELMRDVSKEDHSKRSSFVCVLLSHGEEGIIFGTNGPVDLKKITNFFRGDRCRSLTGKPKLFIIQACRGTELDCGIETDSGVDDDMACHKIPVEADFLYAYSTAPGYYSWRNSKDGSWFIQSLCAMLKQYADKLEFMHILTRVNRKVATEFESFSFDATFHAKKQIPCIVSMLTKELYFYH
Format: functional.

A further series deals with Cytochrome P450 2D6 (Homo sapiens, UniProt P10635).
Cytochrome P450 2D6, sequence (P10635 whole entry): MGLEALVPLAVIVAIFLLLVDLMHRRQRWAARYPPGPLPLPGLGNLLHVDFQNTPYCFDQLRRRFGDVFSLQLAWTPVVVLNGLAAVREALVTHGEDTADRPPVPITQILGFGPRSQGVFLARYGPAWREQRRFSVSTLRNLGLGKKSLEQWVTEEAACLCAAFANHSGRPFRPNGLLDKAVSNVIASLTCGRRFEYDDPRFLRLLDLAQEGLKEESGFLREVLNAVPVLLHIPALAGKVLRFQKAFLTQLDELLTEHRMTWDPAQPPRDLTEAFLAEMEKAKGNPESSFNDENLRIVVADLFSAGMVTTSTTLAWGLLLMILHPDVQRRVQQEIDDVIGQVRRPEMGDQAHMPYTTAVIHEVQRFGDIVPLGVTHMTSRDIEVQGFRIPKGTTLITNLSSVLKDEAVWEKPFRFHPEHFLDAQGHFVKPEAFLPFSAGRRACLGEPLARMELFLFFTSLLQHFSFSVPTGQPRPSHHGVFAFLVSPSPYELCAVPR
The target in series [9] is T8, Calpain-2 catalytic subunit (Sus scrofa, UniProt P43367).
T8 sequence (P43367 whole entry): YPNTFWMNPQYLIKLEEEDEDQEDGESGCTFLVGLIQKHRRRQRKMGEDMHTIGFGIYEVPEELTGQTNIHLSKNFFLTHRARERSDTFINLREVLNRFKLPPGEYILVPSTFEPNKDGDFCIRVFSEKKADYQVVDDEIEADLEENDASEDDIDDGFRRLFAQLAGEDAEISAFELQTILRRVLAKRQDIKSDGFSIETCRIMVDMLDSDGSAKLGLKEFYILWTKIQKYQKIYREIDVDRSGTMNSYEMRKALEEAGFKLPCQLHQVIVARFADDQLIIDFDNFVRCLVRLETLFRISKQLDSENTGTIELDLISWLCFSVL
Nature of the series: m-calpain protease blockers, concentration series – biochemical, fluorogenic peptide substrate, dose response (AID 1420). In kind it is functional.

The target of a further series is Genome polyprotein (dengue virus type 2, UniProt P29990). As to the kind of experiment: flavivirus cap methylation enzyme inhibition – biochemical, confirmation dose response, primary screen (AID 588689). Format: functional.
Genome polyprotein, sequence (P29990 2492-3391 limits assumed): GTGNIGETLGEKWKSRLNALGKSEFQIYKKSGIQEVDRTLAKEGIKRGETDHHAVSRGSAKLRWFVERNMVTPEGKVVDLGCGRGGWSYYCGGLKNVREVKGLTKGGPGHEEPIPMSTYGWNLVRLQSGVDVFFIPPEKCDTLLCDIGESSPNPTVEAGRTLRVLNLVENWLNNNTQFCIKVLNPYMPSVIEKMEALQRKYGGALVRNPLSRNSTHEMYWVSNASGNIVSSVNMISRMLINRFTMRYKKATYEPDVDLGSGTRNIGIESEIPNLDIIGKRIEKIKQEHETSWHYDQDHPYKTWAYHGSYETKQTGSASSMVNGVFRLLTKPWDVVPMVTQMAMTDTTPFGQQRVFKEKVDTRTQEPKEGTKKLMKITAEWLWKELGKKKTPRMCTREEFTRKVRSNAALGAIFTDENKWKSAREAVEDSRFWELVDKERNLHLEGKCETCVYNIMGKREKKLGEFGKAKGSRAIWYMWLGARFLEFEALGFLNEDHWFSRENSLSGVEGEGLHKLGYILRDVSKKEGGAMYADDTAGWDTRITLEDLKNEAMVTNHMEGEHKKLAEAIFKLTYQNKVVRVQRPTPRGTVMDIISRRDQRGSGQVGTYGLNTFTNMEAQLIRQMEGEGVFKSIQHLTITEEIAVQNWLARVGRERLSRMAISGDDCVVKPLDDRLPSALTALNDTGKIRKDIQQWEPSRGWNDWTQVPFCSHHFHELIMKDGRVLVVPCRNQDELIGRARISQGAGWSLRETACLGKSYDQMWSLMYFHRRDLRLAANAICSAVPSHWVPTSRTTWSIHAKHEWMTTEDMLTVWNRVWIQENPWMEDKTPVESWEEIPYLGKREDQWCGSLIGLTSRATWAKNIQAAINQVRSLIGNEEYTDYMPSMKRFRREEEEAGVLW

Activity calls are given as the source filed them.

In the case of `COc1ccc2oc(=O)c(-c3csc(Nc4ccc(O)cc4)n3)cc2c1`, the EC50 is 13.8 µM (active) with Streptococcus, 7.11 µM (active) in series [1] and > 150 µM (not active) at Streptokinase A. Also, the CC50 in series [2] is 38.5 µM (active); with Vero it was 13.3 µM (active).
On to `COc1cccc(/C=C2\SC(=S)N(CCC(=O)NC3C=CS(=O)(=O)C3)C2=O)c1` (stereo not drawn), for which the half-maximal cytotoxic concentration (CC50) with Vero is 23.8 µM (active).
In the case of `Cc1cccc(-n2cnc(C(=O)NC3CCCCCC3)c2)n1`, the values for the concentration at half-maximal activity (AC50) at Cytochrome P450 1A2 and on Cytochrome P450 2C9 were 11.2 µM (inconclusive) and “inconclusive”, respectively. Further, the IC50 in [3] is > 64 µM (inactive).
`COc1cccc(-c2nc(=S)c3c(o2)CCCC3)c1`: the IC50 in series [4] is > 66 µM (inactive); in series [5], > 66 µM (inactive); in series [6], 20.5 µM (active); in series [7] it was 8.32 µM (active); in series [8] it was 27.4 µM (active); at Caspase-3, 24.9 µM (active).
With `C#CCN1C(=O)S/C(=C\c2ccc(-c3ccc(Cl)c(C(=O)O)c3)o2)C1=O`, the EC50 in the series with Streptococcus is 5.9 µM (active); in series [1] it was 2.41 µM (active). The IC50 in [6] is 11.6 µM (active); in series [7] it was 7.59 µM (active); in series [8], 14.9 µM (active); at Caspase-3, 29.6 µM (active).
On to `O=C(CCN1C(=O)C2C3C=CC(C3)C2C1=O)NCCN1CCCc2ccccc21` (stereo not drawn), for which the AC50 on Cytochrome P450 1A2 is 10 µM (inconclusive); at Cytochrome P450 2D6, 22.4 µM (inconclusive); on Cytochrome P450 2C9 it was “inconclusive”.
Take `CCOc1ccc(NC(=O)c2oc3ccccc3c2NC(=O)CC)cc1`: the half-maximal activity concentration (AC50) entry on Cytochrome P450 2C9 is listed as “inconclusive”.
With `COc1ccc(C(=N)NOC(=O)C2CCCCC2)cc1`, the IC50 in series [6] was 29.6 µM (active); in [7], 9.16 µM (active); in series [8] it was 44.1 µM (active); on Caspase-3, 28.4 µM (active).
Turning to `Cc1cc(C(=O)Nc2ccc(N3CCCC3)c(Cl)c2)ccc1[N+](=O)[O-]`, the IC50 is > 100 µM (inactive) in series [6]; 5.48 µM (active) in [7]; > 100 µM (inactive) in series [8]; 2.99 µM (not active) in series [9]; 28.2 µM (active) on Caspase-3.
As to `O=C1NC(=O)N(c2ccc(F)cc2)C(=O)/C1=C/c1ccc(N2CCOCC2)cc1`, the IC50 on Genome polyprotein was > 100 µM (active).
With `CCOC(=O)c1c(C)oc2c1cc(NS(=O)(=O)c1ccc(C(=O)O)cc1)c1ccccc12`, the IC50 at Genome polyprotein was 73.8 µM (active).
Consider `C[C@@H](Cc1cccc(C(F)(F)F)c1)NCCOC(=O)c1ccccc1`, for which, at Cytochrome P450 2C9, the concentration at half-maximal activity (AC50) entry is given as “inconclusive”.
For `O=[N+]([O-])c1ccc(O)c(/C=N/c2ccc3c(c2)OCO3)c1`, the IC50 on Genome polyprotein is 41.9 µM (active).

These data come from ChEMBL document CHEMBL1201862, “PubChem BioAssay data set” (2004).
